Results as given in patent publication US20040191168A1, “Tumor cell killing by cell cycle checkpoint abrogation combined with Inhibition of the classical mitogen activated protein (map) kinase pathway” (priority 2000, published 2004).
Read-outs that look alike come from different tables or passages of the source.

Legend:
U937 cells [1] = test: Morphological assessment of apoptosis (Wright-Giemsa cytospins) in U937 cells; format: cell-based, human; details: for effect on apoptosis in PD184352/UCN-01-treated cells / effect on induction of apoptosis by UCN-01 and PD184352: UCN-01 150 nM + PD184352 10 μM; for effect on apoptosis in PD184352/UCN-01-treated cells: SB203580 10 μM, CHX 1 mM; for Apoptotic cells (%): PD184352 10 μM, GFX 1 μM, safingol 2 μM, mean ± SD; for effect on induction of apoptosis by UCN-01 and PD184352: 10 h, caspase inhibitor 20 μM
Experimental: (§1) Experimental Format. All of the experiments were performed using logarithmically growing cells (3-5×10^5 cells/ml). Cell suspensions were placed in sterile 25 cm^2 T-flasks (Corning, Corning, N.Y.) and incubated with MEK or PKC inhibitors for 30 min at 37° C. At the end of this period, UCN-01 (or in some cases, caffeine) was added to the suspension, and the flasks were placed in 37° C./5% CO2 incubator at various intervals, generally 18 h. In some studies, the p38 MAP kinase inhibitor SB203580 was added concurrently with MEK inhibitors. After drug treatment, cells were harvested and subjected to further analysis as described below.
Analysis of Apoptosis. […] For each condition, 5 to 10 randomly selected fields/condition were evaluated, encompassing at least 500 cells (Vrana and Grant, 2001). To confirm the results of morphological analysis, in some cases cells were also evaluated by TUNEL staining (Gorczyca et al., 1993) and assessment of oligonucleosomal DNA fragmentation of total DNA. DNA fragmentation was analyzed by 1.8% agarose gel electrophoresis as described previously (Jarvis et al., 1994). For TUNEL staining, cytocentrifuge preparations were obtained and fixed with 4% formaldehyde. The slides were treated with acetic acid/ethanol (1:2), stained with terminal transferase reaction mixture containing terminal transferase reaction buffer, 0.25 units/ ml terminal transferase, 2.5 mM CoCl2, and 2 pmol fluorescein-12-dUTP (Boehringer Mannheim, Indianapolis, Ind.), and visualized using fluorescence microscopy.

U937 cells [2] = test: Loss of mitochondrial membrane potential (reduced DiOC6 uptake, flow cytometry) in U937 cells; format: cell-based, human; details: for effect on mitochondrial injury (loss of ΔΨm) in PD184352/UCN-01-treated cells / effect on loss of ΔΨm by UCN-01 and PD184352: UCN-01 150 nM + PD184352 10 μM; for effect on mitochondrial injury (loss of ΔΨm) in PD184352/UCN-01-treated cells: SB203580 10 μM, CHX 1 mM; for "Low" DiOC6 (% cells): PD184352 10 μM, GFX 1 μM, safingol 2 μM, mean ± SD; for effect on loss of ΔΨm by UCN-01 and PD184352: 10 h, caspase inhibitor 20 μM
Experimental: as §1
Analysis of Mitochondrial Membrane Potential (ΔΨm). Cells 2×10^5 were incubated with 40 nM DiOC6 (Molecular Probes Inc., Eugene, Oreg.) in PBS at 37° C. for 20 min and then analyzed by flow cytometry as described previously (Wang et al., 1999).

[3] = test system: mammary and prostate carcinoma cells; test: Apoptosis by double stranded DNA breaks (TUNEL) in carcinoma cells, all cell types examined; format: cell-based, human; details: for effect on potentiation of apoptosis by MEK1/2 inhibitor and UCN-01: carcinoma cells, 24 h, 25 μM PD98059 + 150 nM UCN-01, caspase inhibitor 20 μM
Text: (§2) Terminal Uridyl-Nucleotide End Labeling (TUNEL) for apoptosis.

MCF7 cells [4] = details: MCF7, 24 h; with 150 nM UCN-01; PD184352 10 μM, U0126 5 μM; FIG. 8B
Experimental: Terminal Uridyl-Nucleotide End Labeling (TUNEL) for apoptosis. […] Cells were isolated 24 h after irradiation by trypsinizationi followed by centrifugation onto glass slides (cytospin). Terminal Uridyl-Nucleotide End Labeling (TUNEL) was performed on these cells as described previously [Wang et al., 1999; Park et al., 1999]. Randomly selected fields of fixed cells (150 cells per field, n=5 per slide) were counted initially using propidium iodide counter stain, followed by examination and counting of TUNEL positive staining cells of the same field under FITC/fluorescence light.

MAPK/ERK = test: p42 MAPK immune complex kinase assay in carcinoma cells; format: cell-based, human; details: MCF7, MDA-MB-231, T47D and DU145 cells; UCN-01 150 nM; MEK1/2 inhibitors (PD98059 25 μM, PD184352 10 μM, U0126 5 μM) given with UCN-01
Experimental: Immunoprecipitations from Lysates. Fifty microliters of Protein A agarose (Ag) slurry (25 μl bead volume) was washed twice with 1 ml PBS containing 0.1% (v/v) Tween 20, and resuspended in 0.1 ml of the same buffer. Antibodies (2 μg, 20 μl), serum (20 μl) were added to each tube and incubated (3 h, 4° C.). For pre-conjugated antibodies,10 μl of slurry (4 μg antibody) was used. Clarified equal aliquots of lysates (0.25 ml, 100 μg total protein) were mixed with Ag-conjugated antibodies in duplicate using gentle agitation (2.5 h, 4° C.). Ag-antibody-antigen complexes were recovered by centrifugation, the supernatant discarded, and washed (10 min) sequentially with 0.5 ml buffer A (twice), PBS and buffer B [25 mM Hepes, pH 7.4, 0.1 mM Na3VO4].
Assay of p42^MAPK activity. Immunoprecipitates were incubated (final volume 50 μl ) with 50 μl of buffer B containing 0.2 mM [γ-^32P]ATP (5000 cpm/pmol), 1 μM Microcystin-LR, 0.5 mg/ml myelin basic protein NP), which initiated reactions at time=0. After 20 min., 40 μl of the reaction mixtures were spotted onto a 2 cm circle of P81 paper (Whatman, Maidstone, England) and immediately placed into 180 mM phosphoric acid. Papers were washed four times (10 min each) with phosphoric acid, and once with acetone, and ^32P-incorporation into MBP was quantified by liquid scintillation spectroscopy.

MDA-MB-231 cells [5] = test: TUNEL apoptosis in MDA-MB-231 cells; format: cell-based, human; details: MDA-MB-231, 24 h; with 150 nM UCN-01; PD184352 10 μM, U0126 5 μM; FIG. 8A
Text: as §2

MDA-MB-231 cells [6] = test: Colony forming (clonogenic) assay in MDA-MB-231 cells; format: cell-based, human; details: MDA-MB-231 (MDA), 25 μM PD98059, 150 nM UCN-01, replated 48 h, ± SEM
Experimental: (§3) Colony forming (clonogenic) assay. Cells were plated 36 h prior to experimentation. Cells were pre-treated with MEK1/2 inhibitor as indicated, 2 h prior to exposure. Cells were irradiated (2 Gy). After a further 48 h, cells were isolated by tryptic digestion and single cell suspensions plated on Linbro® plates at densities of 500 cells/well and 1000 cells/well. Colony formation was defined as a colony of 50 cells or greater, 10 days after plating.

MCF7 cells [7] = test: Colony forming (clonogenic) assay in MCF7 cells; format: cell-based, human; details: 25 μM PD98059, 150 nM UCN-01, replated 48 h, ± SEM
Experimental: as §3

T47D cells = test: Colony forming (clonogenic) assay in T47D cells; format: cell-based, human; details: 25 μM PD98059, 150 nM UCN-01, replated 48 h, ± SEM
Experimental: as §3

DU145 cells = test: Colony forming (clonogenic) assay in DU145 cells; format: cell-based, human; details: 25 μM PD98059, 150 nM UCN-01, replated 48 h, ± SEM
Experimental: as §3

C[S+]([O-])c1ccc(-c2nc(-c3ccncc3)c(-c3ccc(F)cc3)[nH]2)cc1 (centres unmarked) [SB203580]
effect on apoptosis in PD184352/UCN-01-treated cells (U937 cells [1]; U937 cells, 18 h): only partially attenuated
effect on mitochondrial injury (loss of ΔΨm) in PD184352/UCN-01-treated cells (U937 cells [2]; 18 h): only partially attenuated

Cn1c(=O)c2c(ncn2C)n(C)c1=O [Caffeine]
apoptosis in PD184352-treated cells (U937 cells [1]; U937 cells, 18 h, caffeine 2 mM with PD184352 10 μM, FIG. 4A): substantially increased
mitochondrial damage (reduction in ΔΨm) in PD184352-treated cells (U937 cells [2]; 18 h, caffeine 2 mM with PD184352 10 μM, FIG. 4A): substantially increased

bisindolylmaleimide [GFX]
apoptosis after 24 h ([3]; all carcinoma cell types examined, bisindolylmaleimide 1 μM in place of UCN-01): did not mimic the actions of UCN-01
Apoptotic cells (%) (U937 cells [1]; U937 cells, 18 h): 1.9 ± 0.2%
"Low" DiOC6 (% cells) (U937 cells [2]; 18 h): 13.2 ± 0.6%

CCCCCCCCCCCCCCC[C@H](O)[C@@H](N)CO [Safingol]
Apoptotic cells (%) (U937 cells [1]; U937 cells, 18 h): 1.9 ± 0.2%
"Low" DiOC6 (% cells) (U937 cells [2]; 18 h): 13.6 ± 0.8%

ZVAD-fmk
effect on potentiation of apoptosis by MEK1/2 inhibitor and UCN-01 [3]: abolished
effect on induction of apoptosis by UCN-01 and PD184352 (U937 cells [1]; U937 cells): blocked
effect on loss of ΔΨm by UCN-01 and PD184352 (U937 cells [2]): blocked

N#CC(=C(/N)Sc1ccccc1N)/C(C#N)=C(\N)Sc1ccccc1N [U0126]
cell death (morphological features of apoptosis) on coadministration with UCN-01 (U937 cells [1]): marked potentiation of cell death
apoptosis in combination with UCN-01 (MCF7 cells [4]): enhanced apoptosis
MAPK/ERK activity (immune complex kinase assay) (MAPK/ERK): opposed
apoptosis in combination with UCN-01 (MDA-MB-231 cells [5]): enhanced apoptosis

IETD
effect on potentiation of apoptosis by MEK1/2 inhibitor and UCN-01 [3]: partially attenuated
effect on induction of apoptosis by UCN-01 and PD184352 (U937 cells [1]; U937 cells): ineffective
effect on loss of ΔΨm by UCN-01 and PD184352 (U937 cells [2]): ineffective

O=c1cc(N2CCOCC2)oc2c(-c3ccccc3)cccc12 [LY294002]
percentage of apoptotic cells (U937 cells [1]; U937 cells, 24 hr, 100 nM UCN-01, 10 μM LY294002, FIG. 14): about 20%

C[C@@H]1C[C@@H]([C@H](O)CC2CC(=O)NC(=O)C2)C(=O)[C@@H](C)C1 [CHX, cycloheximide]
effect on apoptosis in PD184352/UCN-01-treated cells (U937 cells [1]; U937 cells, 18 h): not attenuated
effect on mitochondrial injury (loss of ΔΨm) in PD184352/UCN-01-treated cells (U937 cells [2]; 18 h): not attenuated

COc1cccc(-c2cc(=O)c3ccccc3o2)c1N [PD98059]
cell death (morphological features of apoptosis) on coadministration with UCN-01 (U937 cells [1]; U937 cells, 24 h, with 200 nM UCN-01, PD98059 50 μM, U0126 20 μM (FIG. 1C, D)): marked potentiation of cell death
clonogenic survival (colonies, normalized to control unirradiated cells = 100%) (MDA-MB-231 cells [6]; 2 Gy): 44 ± 1 %
clonogenic survival (colonies, normalized to control unirradiated cells = 100%) (MDA-MB-231 cells [6]; mock irradiated): 91 ± 1%
clonogenic survival (colonies, normalized to control unirradiated cells = 100%) (MCF7 cells [7]; MCF7, 2 Gy): 39 ± 3 %
clonogenic survival (colonies, normalized to control unirradiated cells = 100%) (MCF7 cells [7]; MCF7, mock irradiated): 91 ± 5%
MAPK/ERK activity (immune complex kinase assay) (MAPK/ERK): opposed
clonogenic survival (colonies, normalized to control unirradiated cells = 100%) (T47D cells; 2 Gy): 69 ± 5%
clonogenic survival (colonies, normalized to control unirradiated cells = 100%) (T47D cells; mock irradiated): 97 ± 2%
clonogenic survival (colonies, normalized to control unirradiated cells = 100%) (DU145 cells; DU145, 2 Gy): 65 ± 2%
clonogenic survival (colonies, normalized to control unirradiated cells = 100%) (DU145 cells; DU145, mock irradiated): 99 ± 6%
